The test system of one experiment is Metaphire sieboldi. Put plainly: Anthelmintic activity against Metaphire sieboldi assessed as mean paralysing time up to 0.5% w/v. It counts as functional.
The subject of a further experiment is AGS. Put plainly: Anticancer activity against human AGS cells assessed as cell growth inhibition measured after 3 days by CCK-8 assay. It counts as functional. The following applies: 72 h, time 3 day. A general note: Formazan colour is commonly taken as a measure of viable cells.
A further experiment deals with SNU1. The experiment can be described thus: Anticancer activity against human SNU1 cells assessed as cell growth inhibition measured after 3 days by CCK-8 assay. It counts as functional. The following applies: SNU1, 72 h, time 3 day.
The nature of experiment [1]: Anticancer activity against human KATO III stomach cancer cell line assessed as cell growth inhibition measured after 3 days by CCK-8 assay. It counts as functional. The following applies: 72 h, time 3 day.
The subject of the next experiment is K562. The experiment can be described thus: Anticancer activity against human K562 cells assessed as cell growth inhibition measured after 3 days by CCK-8 assay. It counts as functional. The following applies: K562, 72 h, time 3 day.
For experiment [2], the target named is Serum paraoxonase/arylesterase 1 (Homo sapiens, UniProt P27169). Put plainly: Inhibition of human PON1 using paraoxon as a substrate by regression analysis.
Chain of Serum paraoxonase/arylesterase 1 (P27169 whole entry, the tested form may be a part): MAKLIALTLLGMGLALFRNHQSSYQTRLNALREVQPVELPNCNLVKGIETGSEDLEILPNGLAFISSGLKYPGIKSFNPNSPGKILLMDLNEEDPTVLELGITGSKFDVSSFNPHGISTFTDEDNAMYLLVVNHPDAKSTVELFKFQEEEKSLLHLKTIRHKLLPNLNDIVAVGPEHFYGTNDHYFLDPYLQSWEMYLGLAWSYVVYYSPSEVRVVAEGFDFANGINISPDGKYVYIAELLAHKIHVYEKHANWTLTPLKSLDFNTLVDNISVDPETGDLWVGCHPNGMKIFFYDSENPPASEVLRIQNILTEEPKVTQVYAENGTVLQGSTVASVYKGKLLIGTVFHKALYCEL
In experiment [3] the test system is Staphylococcus aureus. Put plainly: Antibacterial activity against Staphylococcus aureus ATCC 6538 assessed as zone of inhibition at 500 ug per disk measured after 24 hrs by NCCLS based disk diffusion method. It counts as functional. As to conditions: read-out: DIZ.
A short description of experiment [4]: Anticancer activity against human U-87 MG cells assessed as cell growth inhibition measured after 72 hrs by MTT assay. It counts as functional, cell-based, U-87MG ATCC.
A further experiment concerns NCI-H460. The experiment can be described thus: Anticancer activity against human NCI-H460 cells assessed as cell growth inhibition measured after 72 hrs by MTT assay. It counts as functional, cell-based. As to conditions: NCI-H460, 72 h.
For a further experiment, the system named is HT-29. Put plainly: Anticancer activity against human HT-29 cells assessed as cell growth inhibition measured after 72 hrs by MTT assay. As to conditions: HT-29, 72 h. It counts as functional, cell-based.
The subject of the next experiment is A549. The experiment can be described thus: Anticancer activity against human A549 cells assessed as cell growth inhibition measured after 72 hrs by MTT assay. It counts as functional, cell-based. As to conditions: A549, 72 h.
Another experiment relates to SMMC-7721. Put plainly: Anticancer activity against human SMMC-7721 cells assessed as cell growth inhibition measured after 72 hrs by MTT assay. It counts as functional, cell-based. As to conditions: SMMC-7721, 72 h.
Experiment [5] has as its system Pseudomonas aeruginosa. Put plainly: Antibacterial activity against Pseudomonas aeruginosa assessed as cell growth inhibition measured after 24 hrs by serial broth-dilution method. It counts as functional.
Experiment [6] has as its system Aspergillus flavus. The experiment can be described thus: […] activity against Aspergillus flavus assessed as zone of inhibition measured after 24 hrs by agar well diffusion method. It counts as functional. For orientation: A growth-free zone around the sample is the usual read-out of agar diffusion tests.
In experiment [7] the test system is Pseudomonas aeruginosa. Put plainly: Antibacterial activity against Pseudomonas aeruginosa assessed as zone of inhibition measured after 24 hrs by agar well diffusion method. It counts as functional.
The subject of experiment [8] is Aspergillus flavus. The experiment can be described thus: […] activity against Aspergillus flavus assessed as cell growth inhibition measured after 24 hrs by serial broth-dilution method. It counts as functional.
The nature of experiment [9]: Antibacterial activity against Xanthomonas citri assessed as zone of inhibition at 25 ug/ml. It counts as functional. As to conditions: read-out: DIZ.
Experiment [10] deals with Escherichia coli. Put plainly: Antibacterial activity against Escherichia coli assessed as zone of inhibition at 25 ug/ml. It counts as functional. The following applies: read-out: DIZ.
In the next experiment the test system is Mus musculus. The experiment can be described thus: Antiinflammatory activity in carrageenan induced mouse paw oedema model assessed as inhibition of paw oedema at 100 mg/kg, po pretreated with compound for 30 mins followed by carrageenan injection measured after 5 hrs relative to control. It counts as functional. Details: scale not given: the % may be the effect or the level left. As to conditions: time 5.5 hrs. (In general: The carrageenan paw model is a standard test of acute inflammation.)

A short description of experiment [11]: Antioxidant activity assessed as DPPH radical scavenging activity incubated for 10 mins in dark condition by spectrophotometer method. It counts as functional.
For experiment [12], the system named is Escherichia coli. The experiment can be described thus: Antibacterial activity against Escherichia coli assessed as zone of inhibition measured after 24 hrs by agar well diffusion method. It counts as functional.
The subject of experiment [13] is Bacillus subtilis. Put plainly: Antibacterial activity against Bacillus subtilis assessed as zone of inhibition measured after 24 hrs by agar well diffusion method. It counts as functional.
Experiment [14] can be described thus: Antioxidant activity assessed as DPPH radical scavenging activity preincubated for 24 hrs followed by dark incubation 30 mins by UV-visible spectrophotometer method. It counts as functional.
For experiment [15], the system named is Escherichia coli. Put plainly: Antibacterial activity against Escherichia coli MTCC 739 measured after 16 hrs by CLSI based microtitre broth dilution method. It counts as functional.
The test system of experiment [16] is Bacillus subtilis. Put plainly: Antibacterial activity against Bacillus subtilis MTCC 1789 measured after 16 hrs by CLSI based microtitre broth dilution method. It counts as functional.
The test system of experiment [17] is Pseudomonas aeruginosa. Put plainly: Antibacterial activity against Pseudomonas aeruginosa ATCC 25668 measured after 16 hrs by CLSI based microtitre broth dilution method. It counts as functional.
The test system of experiment [18] is Staphylococcus aureus. The experiment can be described thus: Antibacterial activity against Staphylococcus aureus ATCC 6538P measured after 16 hrs by CLSI based microtitre broth dilution method. It counts as functional.

Here are results for twelve compounds from ChEMBL document CHEMBL5126506, “Coumarin-benzimidazole hybrids: A review of developments in medicinal chemistry” (Eur J Med Chem, 2022).

≈ marks a conversion by molar mass, not a printed value.

Consider `O=C(Cc1cc(=O)oc2ccccc12)Nc1nc2ccccc2[nH]1`, for which the Time in the experiment with Metaphire sieboldi amounted to 14 min.

Regarding `CCN(CC)c1ccc2cc(-c3nc4cc(C)ccc4n3C)c(=O)oc2c1`, the GI50 (commonly the concentration that inhibits growth by half) in the experiment on AGS came to 780 nM; with SNU1, 120 nM; in experiment [1] it was 590 nM; in the experiment with K562, 670 nM.

Turning to `Cc1c(C)c(C)c(Cn2c[n+](Cc3cc(=O)oc4cc(O)ccc34)c3ccccc32)c(C)c1C`, in experiment [2], the IC50 (usually the point on the concentration scale where inhibition reaches its midpoint) was 7840 nM.

As for `O=c1oc2ccccc2c(Nc2nc3ccccc3[nH]2)c1[N+](=O)[O-]`, in the experiment with Staphylococcus aureus [3], the zone of inhibition at 500 µg/disc was determined as 23 mm.

Turning to `O=C(CCl)n1c(-c2cc3ccccc3oc2=O)nc2ccccc21`, the IC50 in experiment [4] stood at 340 nM; with NCI-H460 it was 590 nM; in the experiment on HT-29, 570 nM; with A549, 290 nM.

Turning to `O=C(/C(Cl)=N/Nc1ccc(Cl)cc1Cl)n1c(-c2cc3ccccc3oc2=O)nc2ccccc21`, the IC50 in [4] is 290 nM; in the experiment with SMMC-7721, 220 nM; in the experiment on NCI-H460, 360 nM; in the experiment on A549, 250 nM.

As to `O=c1oc2ccccc2c(O)c1C(Sc1nc2ccccc2[nH]1)c1ccccc1` (stereo not drawn), the minimum inhibitory concentration (MIC) with Pseudomonas aeruginosa [5] and in the experiment with Aspergillus flavus [8] was 200 µg/mL (≈ 499 µM) throughout. Also, the entries for the “diameter of the inhibition zone (DIZ)” value with Aspergillus flavus [6] and in the experiment with Pseudomonas aeruginosa [7] were 18 mm and 23 mm, respectively.

Regarding `CCOC(=O)c1sc(Sc2cc3ccccc3oc2=O)c(-c2nc3ccccc3[nH]2)c1N`, the results for the zone of inhibition at 25 µg/mL (in [9]; with Escherichia coli [10]) were 14 mm and 19 mm, respectively.

Consider `COc1ccc(N2CC(c3cc(=O)oc4cc(C)ccc34)c3nc4ccccc4n3C2)cc1` (stereo not drawn), for which the Activity with Mus musculus is listed as 52.61%.

In the case of `O=C(CC(Sc1nc2ccccc2[nH]1)c1ccccc1)c1cc2ccccc2oc1=O` (stereo not drawn), in the experiment with Pseudomonas aeruginosa [5], the minimum inhibitory concentration (MIC) (as a rule, the smallest concentration in the dilution series that meets the test's criterion for growth inhibition) came to 2200 µg/mL (≈ 5160 µM). Also, the half-maximal inhibitory concentration (IC50) in [11] is 35000 µg/mL (≈ 82100 µM).

Take `O=c1oc2ccccc2c(O)c1C(Sc1nc2ccccc2[nH]1)c1ccc(O)cc1` (stereo not drawn): the figures for the “diameter of the inhibition zone (DIZ)” value in the experiment with Aspergillus flavus [6], in the experiment on Escherichia coli [12] and with Bacillus subtilis [13] were 18 mm, 17 mm and 19 mm, respectively. In addition, the MIC in the experiment on Aspergillus flavus [8] came to 200 µg/mL (≈ 480 µM). Besides, in [14], the half-maximal inhibitory concentration (IC50) was found to be 9.82 µg/mL (≈ 23.6 µM).

Take `O=c1oc2ccccc2cc1/C(Cn1cnc2ccccc21)=N\OCc1ccc(Cl)cc1`: the MIC is 3.12 µg/mL (≈ 7.03 µM) in the experiment with Escherichia coli [15], 0.95 µg/mL (≈ 2.14 µM) in the experiment with Bacillus subtilis [16], 3.12 µg/mL (≈ 7.03 µM) in the experiment on Pseudomonas aeruginosa [17] and 1.56 µg/mL (≈ 3.51 µM) against Staphylococcus aureus [18].
